Target: human DGAT2 (hDGAT2) (Homo sapiens (Human), UniProt Q96PD7)
Assay: DGAT2 Enzymatic Activity Assay
Assay type: biochemical
Settings: hDGAT2 Sf-9 membrane prep; 13C18-triolein product by LC/MS/MS; 25 μM diolein, 5 μM 13C oleoyl-CoA
Experimental: Sf-9 insect cells were maintained in Grace's insect cell culture medium with 10% heated-inactivated fetal bovine serum, 1% Pluronic F-68 and 0.14 μg/ml Kanamycine sulfate at 27° C. in a shaker incubator. After infection with untagged baculovirus expressing human DGAT2 (hDGAT2) at multiplicity of infection (MOI) 3 for 48 hours, cells were harvested. Cell pellets were suspended in buffer containing 10 mM Tris-HCl pH 7.5, 1 mM EDTA, 250 mM sucrose and Complete Protease Inhibitor Cocktail (Sigma Aldrich), and sonicated on ice. Cell debris were removed by centrifugation at 2000×g for 15 minutes. Membrane fractions were isolated by ultracentrifugation (100,000×g), resuspended in the same buffer, and frozen (−80° C.) for later use. The protein concentration was determined with the Pierce™ BCA Protein Assay Kit (Thermo Fisher Scientific).
LC/MS/MS analyses were performed using Thermal Fisher's LX4-TSQ Vantage system. This system consists of an Agilent binary high-performance liquid chromatography (HPLC) pump and a TSQ Vantage triple quadrupole MS/MS instrument. For each sample, 2 μL samples from the top organic layer of in-plate liquid-liquid extraction were injected onto a Thermo Betabasic C4 column (2.1 mm×20 mm, 5 μm particle size). The samples were then eluted using the following conditions; mobile phase: Isopropanol: acetonitrile/10 mM ammonium formate=50/35/15 (v/v/v), flow rate: 0.8 mL/min, temperature: 25° C. Data was acquired in positive mode using a heated electrospray ionization (HESI) interface. […] The peak area was integrated by Xcalibur Quan software. The ratio between the ^13C18triolein generated in the reaction and spiked in internal standard ^13C21-triolein was used to generate percentage inhibition and IC50 values. Compound percentage inhibition was calculated by the following formula: Inhibition %=1−[(compound response−low control)/(high control−low control)]×100%.
DGAT2 activity was determined by measuring the amount of enzymatic product ^13C18-triolein (^13C-1,2,3-Tri(cis-9-octadecenoyl)glycerol) using the membrane prep mentioned above. The assay was carried out in ABgene 384-well assay plates in a final volume of 25 μL at rt.

Chain of human DGAT2 (hDGAT2) (Q96PD7 whole entry): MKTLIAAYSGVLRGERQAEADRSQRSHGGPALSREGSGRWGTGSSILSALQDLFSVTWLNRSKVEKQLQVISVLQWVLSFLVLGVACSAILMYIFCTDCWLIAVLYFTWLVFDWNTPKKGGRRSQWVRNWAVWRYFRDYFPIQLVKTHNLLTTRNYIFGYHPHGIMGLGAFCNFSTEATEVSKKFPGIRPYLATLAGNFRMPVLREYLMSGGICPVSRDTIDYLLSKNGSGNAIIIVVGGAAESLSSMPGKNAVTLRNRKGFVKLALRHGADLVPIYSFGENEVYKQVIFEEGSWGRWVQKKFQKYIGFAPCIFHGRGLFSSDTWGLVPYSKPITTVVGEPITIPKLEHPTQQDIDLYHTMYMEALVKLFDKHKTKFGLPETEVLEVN

| SMILES | IC50 [nM] |
| --- | --- |
| CC(C)n1nc(-c2cc(OC(F)F)ccc2F)c2c1CC(C(=O)NC1(C)CS(=O)(=O)C1)CO2 (racemic) [Example 121, 3-(5-(difluoromethoxy)-2-fluorophenyl)-1-isopropyl-N-(3-methyl-1,1-dioxidothietan-3-yl)-1,5,6,7-tetrahydropyrano[3,2-c]pyrazole-6-carboxamide] | 21.5 |
| CC(C)n1nc(-c2cc(OC(F)F)ncc2F)c2c1C[C@H](C(=O)NC1(C)CCS(=O)(=O)CC1)CC2 [Example 21, (R)-3-(2-(difluoromethoxy)-5-fluoropyridin-4-yl)-1-isopropyl-N-(4-methyl-1,1-dioxidotetrahydro-2H-thiopyran-4-yl)-4,5,6,7-tetrahydro-1H-indazole-6-carboxamide] | 43.8 |
| CC(C)n1nc(-c2cc(OC(F)F)ccc2F)c2c1C[C@H](C(=O)N[C@@]1(C)CCS(=O)(=O)C1)CC2 [Example 28, (R)-3-(5-(difluoromethoxy)-2-fluorophenyl)-1-isopropyl-N-((S)-3-methyl-1,1-dioxidotetrahydrothiophen-3-yl)-4,5,6,7-tetrahydro-1H-indazole-6-carboxamide] | 30.1 |
| C[C@]1(NC(=O)[C@@H]2CCc3c(-c4cccc(OC(F)F)c4)nn(C(=O)c4ccccc4)c3C2)CCS(=O)(=O)C1 [Example 76, (R)-1-benzoyl-3-(3-(difluoromethoxy)phenyl)-N-((S)-3-methyl-1,1-dioxidotetrahydrothiophen-3-yl)-4,5,6,7-tetrahydro-1H-indazole-6-carboxamide] | 2740 |
| CC(n1nc(-c2cc(OCC(F)(F)F)ncc2F)c2c1C[C@H](C(=O)NC1(C)CCS(=O)(=O)CC1)CC2)C(C)(C)O (single isomer, unassigned) [Example 107a] | 3.9 |
| CCOc1cc(-c2nn(C(C)C)c3c2CC[C@@H](C(=O)NC2(C)CCS(=O)(=O)CC2)C3)c(F)cn1 [Example 22, (R)-3-(2-ethoxy-5-fluoropyridin-4-yl)-1-isopropyl-N-(4-methyl-1,1-dioxidotetrahydro-2H-thiopyran-4-yl)-4,5,6,7-tetrahydro-1H-indazole-6-carboxamide] | 144 |
| CC(C)n1nc(-c2cccc(C3(C#N)CC3)c2)c2c1C[C@H](C(=O)NC1(C)CS(=O)(=O)C1)CC2 [Example 91, (R)-3-(3-(1-cyanocyclopropyl)phenyl)-1-isopropyl-N-(3-methyl-1,1-dioxidothietan-3-yl)-4,5,6,7-tetrahydro-1H-indazole-6-carboxamide] | > 10000 |
| CC(=O)n1nc(-c2cccc(OC(F)F)c2)c2c1C[C@H](C(=O)N[C@@]1(C)CCS(=O)(=O)C1)CC2 [Example 73, (R)-1-acetyl-3-(3-(difluoromethoxy)phenyl)-N-((S)-3-methyl-1,1-dioxidotetrahydrothiophen-3-yl)-4,5,6,7-tetrahydro-1H-indazole-6-carboxamide] | > 10000 |
| C[C@]1(NC(=O)[C@@H]2CCc3c(-c4cccc(C5CC(F)(F)C5)c4)nn(-c4ccc(F)cc4)c3C2)CCS(=O)(=O)C1 [Example 13, (R)-3-(3-(3,3-difluorocyclobutyl)phenyl)-1-(4-fluorophenyl)-N-((S)-3-methyl-1,1-dioxidotetrahydrothiophen-3-yl)-4,5,6,7-tetrahydro-1H-indazole-6-carboxamide] | 20 |
| CC(n1nc(-c2cc(OC(F)F)ccc2F)c2c1C[C@H](C(=O)NC1(C)CS(=O)(=O)C1)CC2)C(C)(C)O (single isomer, unassigned) [Example 110a] | 30.8 |
| C[C@]1(NC(=O)[C@@H]2CCc3c(-c4cccc(OC(F)F)c4)nn(-c4ccc(F)cn4)c3C2)CCS(=O)(=O)C1 [Example 3, (R)-3-(3-(difluoromethoxy)phenyl)-1-(5-fluoropyridin-2-yl)-N-((S)-3-methyl-1,1-dioxidotetrahydrothiophen-3-yl)-4,5,6,7-tetrahydro-1H-indazole-6-carboxamide] | 4.9 |
| CC1(NC(=O)[C@@H]2CCc3c(-c4cc(OC(F)F)ccc4F)nn(C4CCCC4O)c3C2)CS(=O)(=O)C1 (single isomer, unassigned) [Example 114c] | 99.9 |
| CC1(NC(=O)[C@@H]2CCc3c(-c4cccc(OC(F)F)c4)nn(C4CCOCC4)c3C2)CS(=O)(=O)C1 [Example 23, (R)-3-(3-(difluoromethoxy)phenyl)-N-(3-methyl-1,1-dioxidothietan-3-yl)-1-(tetrahydro-2H-pyran-4-yl)-4,5,6,7-tetrahydro-1H-indazole-6-carboxamide] | 169 |
| CC(C)n1nc(-c2cccc(C3CC3)c2)c2c1C[C@H](C(=O)NC1(C)CS(=O)(=O)C1)CO2 [Example 125, (S)-3-(3-cyclopropylphenyl)-1-isopropyl-N-(3-methyl-1,1-dioxidothietan-3-yl)-1,5,6,7-tetrahydropyrano[3,2-c]pyrazole-6-carboxamide] | 22.2 |
| CC(c1nccs1)n1nc(-c2cc(OC(F)F)ccc2F)c2c1C[C@H](C(=O)NC1(C)CS(=O)(=O)C1)CC2 (stereo partly drawn) [Example 80, (6R)-3-(5-(difluoromethoxy)-2-fluorophenyl)-N-(3-methyl-1,1-dioxidothietan-3-yl)-1-(1-(thiazol-2-yl)ethyl)-4,5,6,7-tetrahydro-1H-indazole-6-carboxamide] | 174 |
| Cc1nnc(NC(=O)[C@@H]2CCc3c(-c4cccc(OC(F)F)c4)nn(C4CCOCC4)c3C2)s1 [Example 67, (R)-3-(3-(difluoromethoxy)phenyl)-N-(5-methyl-1,3,4-thiadiazol-2-yl)-1-(tetrahydro-2H-pyran-4-yl)-4,5,6,7-tetrahydro-1H-indazole-6-carboxamide] | > 10000 |
| CCOc1cc(-c2nn(C(C)C(C)(C)O)c3c2CC[C@@H](C(=O)NC2(C)CCS(=O)(=O)CC2)C3)c(F)cn1 (single isomer, unassigned) [Example 109b] | 30.7 |
| CC(C)n1nc(-c2cccc(OC(F)F)c2)c2c1C[C@H](C(=O)NCc1cnoc1)CC2 [Example 63, (R)-3-(3-(difluoromethoxy)phenyl)-1-isopropyl-N-(isoxazol-4-ylmethyl)-4,5,6,7-tetrahydro-1H-indazole-6-carboxamide] | 4560 |
| CCOc1cccc(-c2nn(C(C)C)c3c2CC[C@@H](C(=O)NC2(C)CCS(=O)(=O)CC2)C3)c1 [Example 33, (R)-3-(3-ethoxyphenyl)-1-isopropyl-N-(4-methyl-1,1-dioxidotetrahydro-2H-thiopyran-4-yl)-4,5,6,7-tetrahydro-1H-indazole-6-carboxamide] | 3.3 |
| CC(C)NC(=O)N1CCC(C)(NC(=O)[C@@H]2CCc3c(-c4cc(OC(F)F)ccc4F)nn(C(C)C)c3C2)C1 (stereo partly drawn) [Example 60, (6R)-3-(5-(difluoromethoxy)-2-fluorophenyl)-1-isopropyl-N-(1-(isopropylcarbamoyl)-3-methylpyrrolidin-3-yl)-4,5,6,7-tetrahydro-1H-indazole-6-carboxamide] | 29.2 |
| CC(C)n1nc(-c2cc(OC(F)F)ccc2F)c2c1CC(C(=O)N[C@@]1(C)CCS(=O)(=O)C1)CO2 (stereo partly drawn) [Example 122, 3-(5-(difluoromethoxy)-2-fluorophenyl)-1-isopropyl-N-((S)-3-methyl-1,1-dioxidotetrahydrothiophen-3-yl)-1,5,6,7-tetrahydropyrano[3,2-c]pyrazole-6-carboxamide] | 5.8 |
| CCOc1cc(-c2nn(C(C)C(F)(F)F)c3c2CC[C@@H](C(=O)NC2(C)CCS(=O)(=O)CC2)C3)c(F)cn1 (single isomer, unassigned) [Example 53b] | 10.3 |
